# US7358057B2, “QM-7 and QT-6 cells transfected with mutant cell surface expressed channel receptors and assays using the transfected cells” (Memory Pharmaceuticals Corporation, priority 2002, dated 2008)
# Read-outs that look alike come from different tables or passages of the source.
# Key:
# wild type α7 receptor = biological target: T1, wild type α7 receptor (Homo sapiens, UniProt P36544); assay: Real time, high throughput Ca++ imaging assay using FLIPR, QM-7 cells transiently transfected with wild type α7; type: cell-based; conditions: QM-7 cells transiently transfected with wild type human α7, Fluo 3 dye, FIG. 1
# T1 construct: expressed in transfected cells; host or cells: QM-7 cells (quail), transient transfection with Lipofectamine PLUS
# T1 sequence (P36544 23-502): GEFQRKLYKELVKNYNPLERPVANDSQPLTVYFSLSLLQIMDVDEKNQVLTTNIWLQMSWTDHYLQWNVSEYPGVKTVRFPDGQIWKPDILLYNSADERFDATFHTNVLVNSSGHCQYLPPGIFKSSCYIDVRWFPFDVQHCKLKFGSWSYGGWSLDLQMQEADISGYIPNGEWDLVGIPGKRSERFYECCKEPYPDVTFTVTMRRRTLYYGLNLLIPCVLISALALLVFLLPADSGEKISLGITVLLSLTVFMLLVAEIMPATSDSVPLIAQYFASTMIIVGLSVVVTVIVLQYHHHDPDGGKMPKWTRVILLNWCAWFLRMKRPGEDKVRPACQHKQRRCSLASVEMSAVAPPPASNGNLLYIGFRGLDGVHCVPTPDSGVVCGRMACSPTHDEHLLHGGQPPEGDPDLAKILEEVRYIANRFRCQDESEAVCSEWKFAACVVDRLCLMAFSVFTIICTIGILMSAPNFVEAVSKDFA
# Experimental: (§1) QM-7 cells were transiently transfected with either wild type or L 270T mutant α7 receptor with Lipofectamine PLUS reagent (Invitrogen), in 175 cm^2 flasks. Twenty four hours after the transfection, the cells were collected and re-seeded into a 96-well plate at a density of 40,000 cells/well. Twenty four hours after re-seeding, the cell were incubated with Ca^++ sensitive dye Fluo 3, washed and stimulated with the selective alpha 7 agonist GTS-21. Cellular Ca^++ signal was detected with FLIPR, quantified and plotted against the concentration of GTS-21.
# L270T mutant α7 receptor = biological target: T2, L270T mutant α7 receptor (Homo sapiens, UniProt P36544, L270T); assay: Real time, high throughput Ca++ imaging assay using FLIPR, QM-7 cells transiently transfected with L270T mutant α7; type: cell-based
# T2 construct: expressed in transfected cells; host or cells: QM-7 cells (quail), transient transfection with Lipofectamine PLUS
# T2 sequence (P36544 23-502 L270T): as the sequence (P36544 23-502) above, with L248T counted along it
# Experimental: as §1
# [1] = QM-7 cells transiently transfected with human L270T α7, Fluo 3 dye, FLIPR, FIG. 1
compound,measurement,setting,value
COc1ccc(/C=C2\CCCN=C2c2cccnc2)c(OC)c1 [GTS-21],Cellular Ca++ signal on stimulation,wild type α7 receptor,failed to give a meaningful signal
same,Cellular Ca++ signal on stimulation,L270T mutant α7 receptor; [1],dose-dependent increase of Ca^++ signal
same,Concentration at which the Ca++ signal saturated,L270T mutant α7 receptor; [1],10 µM
"CCN1C[C@]2(COC(=O)c3ccccc3N3C(=O)C[C@H](C)C3=O)CC[C@H](OC)[C@@]34[C@@H]5C[C@H]6[C@H](OC)[C@@H]5[C@](O)(C[C@@H]6OC)[C@@](O)([C@@H](OC)[C@H]23)[C@@H]14 [MLA, Methyllycaconitine]",Attenuation of signals from epibatidine stimulation,L270T mutant α7 receptor,attenuated
Clc1ccc(C2CC3CCC2N3)cn1 (stereo not drawn) [epibatidine],Responsiveness of cells to agonist (Ca++ signal),L270T mutant α7 receptor; QM-7 cells transiently transfected with the mutant,responsive
CN1CCCC1c1cccnc1 (stereo not drawn) [nicotine],Responsiveness of cells to agonist (Ca++ signal),L270T mutant α7 receptor,responsive
